Source: PubChem BioAssay AID2060501 (Molecular Pharmacology Branch, DTP, NCI, 2025)

Tested on: 282377-053-R-J1-PDC complex spheroids, viability
Test: Anticancer human tumor 282377-053-R-J1-PDC patient-derived colon adenocarcinoma cell line growth inhibition [GQUAD]
Details: for IC50: curve of first compound; for viability, T/C: stronger effect = lower value
Outline: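 Viability of tumor cells grown as complex spheroids with endothelial and stromal cells, exposed to drug combinations. Top concentration at or near clinical Cmax (else 10 microM), diluted in half-log increments.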

[1] = second compound 0.0316 µM, first compound 0.0316 µM
[2] = second compound 0.0316 µM, first compound 0.1 µM
[3] = second compound 0.0316 µM, first compound 0.316 µM
[4] = second compound 0.0316 µM, first compound 1 µM
[5] = second compound 0.0316 µM, first compound 3.16 µM
[6] = second compound 0.0316 µM, first compound 10 µM
[7] = second compound 0.1 µM, first compound 0.0316 µM
[8] = second compound 0.1 µM, first compound 0.1 µM
[9] = second compound 0.1 µM, first compound 0.316 µM
[10] = second compound 0.1 µM, first compound 1 µM
[11] = second compound 0.1 µM, first compound 3.16 µM
[12] = second compound 0.1 µM, first compound 10 µM
[13] = second compound 0.316 µM, first compound 0.0316 µM
[14] = second compound 0.316 µM, first compound 0.1 µM
[15] = second compound 0.316 µM, first compound 0.316 µM
[16] = second compound 0.316 µM, first compound 1 µM
[17] = second compound 0.316 µM, first compound 3.16 µM
[18] = second compound 0.316 µM, first compound 10 µM
[19] = second compound 1 µM, first compound 0.0316 µM
[20] = second compound 1 µM, first compound 0.1 µM
[21] = second compound 1 µM, first compound 0.316 µM
[22] = second compound 1 µM, first compound 1 µM
[23] = second compound 1 µM, first compound 3.16 µM
[24] = second compound 1 µM, first compound 10 µM
[25] = second compound 3.16 µM, first compound 0.0316 µM
[26] = second compound 3.16 µM, first compound 0.1 µM
[27] = second compound 3.16 µM, first compound 0.316 µM
[28] = second compound 3.16 µM, first compound 1 µM
[29] = second compound 3.16 µM, first compound 3.16 µM
[30] = second compound 3.16 µM, first compound 10 µM
[31] = second compound 10 µM, first compound 0.0316 µM
[32] = second compound 10 µM, first compound 0.1 µM
[33] = second compound 10 µM, first compound 0.316 µM
[34] = second compound 10 µM, first compound 1 µM
[35] = second compound 10 µM, first compound 3.16 µM
[36] = second compound 10 µM, first compound 10 µM
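Note: spheroids exposed to compounds for 7 days before readout.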
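Throughout, for viability, T/C: percent of vehicle DMSO control viability with 100% = untreated-like growth.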

CC(=O)O[C@H]1C(=O)[C@@]2(C)[C@H]([C@H](OC(=O)c3ccccc3)[C@]3(O)C[C@H](OC(=O)[C@H](O)[C@@H](NC(=O)c4ccccc4)c4ccccc4)C(C)=C1C3(C)C)[C@]1(OC(C)=O)CO[C@@H]1C[C@@H]2O + Cc1[nH]c2ccc(F)cc2c1-c1nc2c3cccnc3c3ncccc3c2[nH]1
IC50 (second compound 0.0316 µM): 519 nM
IC50 (second compound 0.1 µM): 584 nM
IC50 (second compound 0.316 µM): 519 nM
IC50 (second compound 1 µM): 617 nM
IC50 (second compound 3.16 µM): 424 nM
IC50 (second compound 10 µM): < 31.6 nM
viability, T/C [1]: 115%
viability, T/C [2]: 112%
viability, T/C [3]: 84.6%
viability, T/C [4]: 4.01%
viability, T/C [5]: 0.1%
viability, T/C [6]: 0.12%
viability, T/C [7]: 108%
viability, T/C [8]: 107%
viability, T/C [9]: 106%
viability, T/C [10]: 3.64%
viability, T/C [11]: 0.06%
viability, T/C [12]: 0.09%
viability, T/C [13]: 107%
viability, T/C [14]: 111%
viability, T/C [15]: 79.5%
viability, T/C [16]: 10.8%
viability, T/C [17]: 0.05%
viability, T/C [18]: 0.21%
viability, T/C [19]: 116%
viability, T/C [20]: 90.3%
viability, T/C [21]: 110%
viability, T/C [22]: 9.92%
viability, T/C [23]: 0.04%
viability, T/C [24]: 0.07%
viability, T/C [25]: 92.8%
viability, T/C [26]: 109%
viability, T/C [27]: 66%
viability, T/C [28]: 4.89%
viability, T/C [29]: 0.11%
viability, T/C [30]: 0.1%
viability, T/C [31]: 36.7%
viability, T/C [32]: 43.9%
viability, T/C [33]: 59.1%
viability, T/C [34]: 10.1%
viability, T/C [35]: 0.17%
viability, T/C [36]: 0.46%

CCCS(=O)(=O)Nc1ccc(F)c(C(=O)c2c[nH]c3ncc(-c4ccc(Cl)cc4)cc23)c1F + Cc1[nH]c2ccc(F)cc2c1-c1nc2c3cccnc3c3ncccc3c2[nH]1
IC50 (second compound 0.0316 µM): 2210 nM
IC50 (second compound 0.1 µM): 2130 nM
IC50 (second compound 0.316 µM): 2150 nM
IC50 (second compound 1 µM): 2040 nM
IC50 (second compound 3.16 µM): 781 nM
IC50 (second compound 10 µM): < 31.6 nM
viability, T/C [1]: 95.9%
viability, T/C [2]: 90.4%
viability, T/C [3]: 95.1%
viability, T/C [4]: 92.5%
viability, T/C [5]: 30.9%
viability, T/C [6]: 14.5%
viability, T/C [7]: 130%
viability, T/C [8]: 114%
viability, T/C [9]: 89%
viability, T/C [10]: 81.2%
viability, T/C [11]: 31.7%
viability, T/C [12]: 13.2%
viability, T/C [13]: 96.4%
viability, T/C [14]: 83.7%
viability, T/C [15]: 81.8%
viability, T/C [16]: 91.4%
viability, T/C [17]: 30.5%
viability, T/C [18]: 16.1%
viability, T/C [19]: 108%
viability, T/C [20]: 120%
viability, T/C [21]: 74.3%
viability, T/C [22]: 93.2%
viability, T/C [23]: 23.9%
viability, T/C [24]: 11.8%
viability, T/C [25]: 89.2%
viability, T/C [26]: 66.7%
viability, T/C [27]: 71.9%
viability, T/C [28]: 45.3%
viability, T/C [29]: 9.06%
viability, T/C [30]: 6.19%
viability, T/C [31]: 33.6%
viability, T/C [32]: 31.9%
viability, T/C [33]: 23.1%
viability, T/C [34]: 22.8%
viability, T/C [35]: 3.93%
viability, T/C [36]: 4.48%

O=c1[nH]cc(F)c(=O)[nH]1 + Cc1[nH]c2ccc(F)cc2c1-c1nc2c3cccnc3c3ncccc3c2[nH]1
IC50 (second compound 0.0316 µM): > 10000 nM
IC50 (second compound 0.1 µM): > 10000 nM
IC50 (second compound 0.316 µM): > 10000 nM
IC50 (second compound 1 µM): > 10000 nM
IC50 (second compound 3.16 µM): > 10000 nM
IC50 (second compound 10 µM): < 31.6 nM
viability, T/C [1]: 92.8%
viability, T/C [2]: 104%
viability, T/C [3]: 126%
viability, T/C [4]: 88.8%
viability, T/C [5]: 78.2%
viability, T/C [6]: 74%
viability, T/C [7]: 110%
viability, T/C [8]: 111%
viability, T/C [9]: 114%
viability, T/C [10]: 87.5%
viability, T/C [11]: 84.1%
viability, T/C [12]: 82%
viability, T/C [13]: 115%
viability, T/C [14]: 106%
viability, T/C [15]: 93.7%
viability, T/C [16]: 95.1%
viability, T/C [17]: 75.8%
viability, T/C [18]: 69.3%
viability, T/C [19]: 108%
viability, T/C [20]: 112%
viability, T/C [21]: 117%
viability, T/C [22]: 91.2%
viability, T/C [23]: 76.4%
viability, T/C [24]: 68.4%
viability, T/C [25]: 75.7%
viability, T/C [26]: 80.2%
viability, T/C [27]: 72%
viability, T/C [28]: 49.9%
viability, T/C [29]: 58.8%
viability, T/C [30]: 54.1%
viability, T/C [31]: 41.1%
viability, T/C [32]: 40.5%
viability, T/C [33]: 50.8%
viability, T/C [34]: 42%
viability, T/C [35]: 40%
viability, T/C [36]: 34.4%
